Laboratory results published in CN116139126A, “表没食子儿茶素-3-没食子酸酯在制备嗜水气单胞菌的群体感应抑制剂中的应用” (Yueyang Yumeikang Bio Tech Co ltd, priority 2023, dated 2023).
In brackets after ≈: the same amount, converted by molar mass. Entries after “also recorded” stand apart in the source; their conditions may differ. Read-outs that look alike come from different tables or passages of the source.

Columns and labels:
[1] = tested on: Aeromonas hydrophila (嗜水气单胞菌); test: Histopathology of infected zebrafish (gill, muscle, liver; H&E); assay type: in vivo, Aeromonas hydrophila AH08; zebrafish
[2] = tested on: Aeromonas hydrophila (嗜水气单胞菌); test: MIC/MBC by twofold dilution in TSB; assay type: cell-based, Aeromonas hydrophila AH08; settings: 30 °C, 24 h; for MIC: TSB
[3] = tested on: Aeromonas hydrophila (嗜水气单胞菌); settings: swarming and swimming, 64-256 μg/mL
[4] = tested on: Aeromonas hydrophila (嗜水气单胞菌); test: microbe, parasite or virus in culture; settings: 18 h
[5] = tested on: pro-inflammatory cytokine genes IL-1β, IL-8, IL-6, TNF-α (促炎细胞因子基因); test: Pro-inflammatory cytokine gene expression in zebrafish intestine (qRT-PCR); settings: 6 h after infection
[6] = tested on: virulence factor and QS genes of Aeromonas hydrophila (嗜水气单胞菌毒力因子及QS基因); test: qRT-PCR of quorum sensing and virulence genes; assay type: cell-based, Aeromonas hydrophila AH08; settings: normalised to rpob
[7] = tested on: Aeromonas hydrophila biofilm (嗜水气单胞菌生物膜); test: Biofilm inhibition test (crystal violet); assay type: cell-based, Aeromonas hydrophila AH08; settings: for inhibition at 128 µg/mL: Aeromonas hydrophila, 128 μg/ml, 30 °C, read-out: inhibition rate of biofilm
[8] = tested on: Aeromonas hydrophila (嗜水气单胞菌); assay type: in vivo, Aeromonas hydrophila AH08; zebrafish; settings: for reduction of bacterial adhesion CFU: compared with model group
[9] = tested on: AI-2 of Aeromonas hydrophila (AI-2); test: AI-2 bioluminescence assay with V. harveyi BB170 reporter; assay type: cell-based, Aeromonas hydrophila AH08; settings: compared with control (no EGCG); 16-256 μg/mL
[10] = tested on: Aeromonas hydrophila (嗜水气单胞菌); test: Growth curve of A. hydrophila; assay type: cell-based, Aeromonas hydrophila AH08
[11] = tested on: Aeromonas hydrophila (嗜水气单胞菌); test: Protection of zebrafish infected with A. hydrophila (survival); assay type: in vivo, Aeromonas hydrophila AH08; zebrafish; settings: for time of death of the first zebrafish: injected after intraperitoneal infection; for survival rate: model group 0
[12] = read-out: inhibition rate of swarming
[13] = read-out: inhibition rate of swimming

SMILES: O=C(O[C@@H]1Cc2c(O)cc(O)cc2O[C@@H]1c1cc(O)c(O)c(O)c1)c1cc(O)c(O)c(O)c1 [EGCG, 表没食子儿茶素-3-没食子酸酯]
- protection of tissues of infected zebrafish ([1]; dose-dependent): 显著的保护作用
- pathological damage caused by A. hydrophila ([1]; liver, muscle and gill of infected zebrafish): 明显改善
- inflammatory cell infiltration ([1]; zebrafish liver, muscle and gill): 显著减少
- MBC ([2]; Aeromonas hydrophila, TSB agar): 4100 µg/mL (≈ 8940 µM)
- MIC ([2]; Aeromonas hydrophila, read-out: MIC): 1020 µg/mL (≈ 2230 µM)
- MIC [2]: 1024 µg/mL (≈ 2230 µM)
- inhibition of motility (in words) [3]: 显著抑制嗜水气单胞菌的运动性,且呈浓度依赖性
- inhibition at 128 µg/mL [4, 12]: 29.7%
- inhibition at 256 µg/mL [4, 12]: 33%
- inhibition at 64 µg/mL [4, 13]: 16%
- inhibition at 128 µg/mL [4, 13]: 28.3%
- inhibition at 256 µg/mL [4, 13]: 66%
- expression of IL-1β [5]: 显著抑制
- expression of IL-6 [5]: 显著抑制
- expression of IL-8 [5]: 显著抑制
- expression of TNF-α [5]: 显著抑制
- expression of LuxR ([6]; AI-1 related gene): 不影响
- expression of ahyI ([6]; AI-1 related gene): 显著抑制
- expression of ahyR ([6]; AI-1 related gene): 显著抑制
- expression of LuxS ([6]; AI-2 synthase): 显著抑制
- expression of QseB ([6]; AI-3 related gene): 显著抑制
- expression of ahyB ([6]; elastase gene): 显著下调
- expression of flgL ([6]; flagellar gene): 显著下调
- expression of ahh1 ([6]; hemolysin gene): 显著下调
- expression of hly ([6]; hemolysin gene): 显著下调
- inhibition of biofilm formation (in words) ([7]; 16-256 μg/mL): 显著抑制
- concentration dependence of biofilm inhibition ([7]; 24 h): 呈浓度依赖性
- inhibition at 128 µg/mL ([7]; 24 h): 38.3%
- inhibition at 128 µg/mL ([7]; 48 h): 26.6%
- reduction of bacterial adhesion CFU ([8]; 10 mg/kg): 21.22%
- reduction of bacterial adhesion CFU ([8]; 50 mg/kg): 33.47%
- reduction of bacterial adhesion CFU ([8]; 100 mg/kg): 38.00%
- adhesion of A. hydrophila to zebrafish (in words) ([8]; after EGCG treatment): 显著降低
- bacterial load of zebrafish (in words) ([8]; after EGCG treatment): 显著降低
- AI-2 secreted by A. hydrophila [9]: 明显减少,并呈浓度依赖性
- inhibition of growth after 12 h (growth curve) ([10]; 0-256 μg/mL, 30 °C, after 12 h): 没有明显的抑制作用
- effect on lag phase (growth curve) ([10]; 0-256 μg/mL, 30 °C, od600nm): 增加了细菌的滞后期; also recorded: 延缓了嗜水气单胞菌进入对数生长期的时间
- bactericidal effect ([10]; 64-256 μg/ml, compared with control without EGCG): 不直接产生杀菌作用
- effect on growth after 24 h ([10]; sub-MIC, after 24 h): 没有明显影响
- time of death of the first zebrafish ([11]; 50 mg/kg): 18 h
- time of death of the first zebrafish ([11]; 100 mg/kg): 48 h
- survival rate ([11]; high dose group (100 mg/kg), 48 h after infection): 88.9%
- survival rate (in words) ([11]; low dose group (10 mg/kg), 48 h after infection, compared with model group): 与模型组的生存率相同
- survival rate ([11]; medium dose group (50 mg/kg), 48 h after infection): 88.9%
